Measured values from patent US4775758A, “Phospholipids” (Takeda Chemical Industries, Ltd., priority 1983, dated 1988).

What was measured:
Meth A cells = assay: Antitumor activity, subcutaneous Meth A, administration on the transplanted portion, tumor weight; assay type: in vivo; details: 0.25 mg/mouse on the transplanted portion once a day for 4 days; Meth A s.c., CDF1 mice; ten days later
Method: Antitumor activity of 1,3-dinonyloxypropane-2-yl 2-trimethylammonioethyl phosphate (Example 9)
Meth A cells (1×10^6 cells per mouse) were transplanted subcutaneously to CDF1 mice (a group consisting of 5 mice). On the other hand, a solution of 0.25 mg/mouse of the compound of Example 9 in 0.05 ml of physilogical saline was given to each of the mice on the portion transplanted with the cells once a day for 4 consecutive days from the 1st day following the transplantation. Ten days later, the tumor tissues were removed, and the weight of tumors was measured.

MM46 cells = assay: Antitumor activity, intraperitoneal MM46, administration before and after inoculation, survival; assay type: in vivo; details: 5 animals per group; 0.25 mg/mouse i.p., 4 days before and 4 days after 1×10^4 MM46 cells i.p.; C3H/He mice; controls all died within 19 days
Method: Antitumor activity of the compound of Example 9
The compound of Example 9 was intraperitoneally administered to C3H/He mice (5 animals per group) in a dose of 0.25 mg/mouse for 4 consecutive days.
On the 5th day, 1×10^4 MM46 cells were intraperitoneally inoculated into each mouse, and the compound of Example 9 was again administered intraperitoneally to the mice in a dose of 0.25 mg/mouse for 4 days starting from day 1 after inoculation.
The mice in the control group all died within 19 days after tumor implantation, whereas, in the drug-treated group, 3 animals survived on day 60.

sarcoma 180 cells [1] = assay: Antitumor activity, intraperitoneal sarcoma 180, three administrations, life span; assay type: in vivo, ICR mice
Description: ICR mice (5 animals per group) were intraperitoneally inoculated with 1×10^5 sarcoma 180 cells per mouse. […] The life span prolonging ratio as compared with the control (no drug treatment) group was 198, and 1 animal survived on day 60.

Piricularia oryzae = assay: microbe, parasite or virus in culture; assay type: cell-based
sarcoma 180 cells [2] = assay: Antitumor activity (simultaneous administration), intraperitoneal sarcoma 180, life span; assay type: in vivo, ICR mice; details: for rate of life prolongation against the control group: 1 mg/mouse i.p. after i.p. transplantation of 1×10^5 sarcoma 180 cells, ICR mice
Method: Antitumor activity (simultaneous administration) of 1,3-dioctyloxypropane-2-yl 2-trimethylammonioethyl phosphate (Example 1)
Sarcoma 180 cells (1×10^5 cells per mouse) was transplanted intraperitoneally to ICR mice (a group consisting of 5 mice). Subsequently, the compound of Example 1 (1 mg/mouse) was dissolved in physiological saline, and administered intraperitoneally to each of the mice. In the group given the drug compound, two mice survived 60 days, and the rate of life prolongation against the control group not given the drug compound was 458.

Botrytis cinerea = assay: Antifungal action, MIC by serial dilution technique; assay type: cell-based; details: 1% glucose bouillon agar
Method: (§1) Antifungal action of 1,3-dioctyloxypropane-2-yl 2-trimethylammonioethyl phosphate (Example 1)
(§2) Using typical fungi, the minimal inhibition concentrations (MIC) were determined with the compound of Example 1 by the serial dilution technique on a 1% glucose bouillon agar culture medium.

Elsinoe fawcetti = assay: as above; assay type: cell-based; details: 1% glucose bouillon agar
Method: as §1, §2

Cladosporium herbarum = assay: as above; assay type: cell-based; details: 1% glucose bouillon agar
Method: as §1, §2

Cercospora beticola = assay: as above; assay type: cell-based; details: 1% glucose bouillon agar
Method: as §1, §2

Diaporthe citri = assay: as above; assay type: cell-based; details: 1% glucose bouillon agar
Method: as §1, §2

sarcoma 180 cells [3] = assay: Antitumor activity, subcutaneous sarcoma 180, intravenous administration, tumor weight; assay type: in vivo; details: 0.06 mg/mouse i.v., 9 times, 7th to 20th day; tumor weight on 21st day; sarcoma 180 s.c., ICR mice
Method: (§3) Antitumor activity of 1,3-dioctyloxypropane-2-yl 2-trimethylammonioethyl phosphate (Example 1)
Sarcoma 180 cells (1×10^6 cells) were transplanted subcutaneously to each of ICR mice (a group consisting of 5 mice). The compound of Example 1 was injected intravenously to the mice at the single dose rate of 0.06 mg/mouse 9 times over the period of from the 7th day after the transplantation to the 20th day. On the 21th day, the mice were anatomized, and the weight of tumors was measured.

Saccharomyces cerevisiae = assay: Antifungal action, MIC by serial dilution technique; assay type: cell-based; details: 1% glucose bouillon agar
sarcoma 180 cells [4] = assay: Antitumor activity, subcutaneous sarcoma 180, intraperitoneal administration, tumor weight; assay type: in vivo; details: 0.2 mg/mouse i.p., 13 times, 2nd to 20th day; tumor weight on 21st day; sarcoma 180 s.c., ICR mice
Method: as §3
Sarcoma 180 cells (1×10^6 cells) were transplanted subcutaneously to each of ICR mice (a group consisting of 5 mice). The compound of Example 1 was administered intraperitoneally to the mice at the single dose rate of 0.2 mg/mouse 13 times over the period of from the 2nd day to the 20th day. On the 21th day, the mice were anatomized, and the weight of tumors was measured.

Penicilium citrinum = assay: Antifungal action, MIC by serial dilution technique; assay type: cell-based; details: 1% glucose bouillon agar
Helminthosporium oryzae = assay: as above; assay type: cell-based; details: Bipolaris oryzae
Mucor spinescens = assay: as above; assay type: cell-based; details: 1% glucose bouillon agar
sarcoma 180 cells [5] = assay: Antitumor activity (pre-administration), intraperitoneal sarcoma 180, life span; assay type: in vivo; details: 1 mg/mouse i.p., 4 days before i.p. transplantation of 1×10^5 sarcoma 180 cells; ICR mice
Method: Antitumor activity (pre-administration) of 1,3-dioctyloxypropane-2-yl 2-trimethylammonioethyl phosphate (Example 1)
A 1 mg/mouse of the compound of Example 1 was admixed with physiological saline, and administered intraperitoneally to ICR mice (a group consisting of 5 mice). Four days later, 1×10^5 sarcoma 180 cells per mouse was transplanted intraperitoneally to each of the mice.

sarcoma 180 cells [6] = assay: Antitumor activity, intraperitoneal sarcoma 180, 9 consecutive days, life span; assay type: in vivo; details: 25 mg/kg i.p., 4×10^5 sarcoma 180 cells i.p., ICR mice
Method: Antitumor activity of 1,3-diheptyloxypropane-2-yl 2-trimethylammonioethyl phosphate (Example 10)
Sarcoma 180 cells (4×10^5 cells per mouse) were transplanted intraperitoneally to ICR mice (a group consisting of 5 mice). The compound of Example 10 was administered intraperitoneally to the mice at the single dose rate of 25 mg/kg for 9 consecutive days from the day following transplantation.

P 388 leukemia cells = assay: Antitumor activity, P 388 leukemia cells mixed with compound and transplanted subcutaneously, tumor weight; assay type: in vivo; details: 1×10^6 P 388 cells mixed with 0.1 g of compound, s.c., CDF1 mice; tumor weight on 10th day
Description: Antitumor activity of 1,3-dioctyloxypropane-2-yl 2-thiazolioethyl phosphate (Example 3)
P 388 leukemia cells (1×10^6 cells) were mixed with 0.1 g of the compound of Example 3, and transplanted subcutaneously to each of CDF1 mice (a group consisting of 5 mice).

platelet = details: Biochemical and Biophysical Research Communications, 99, 183 (1981); cited from earlier work
[7] = rat, in vivo, iv
Method: Male 7-week aged Sprague-Dawley rats (weighing 200 to 290 g) were anesthetized by intraperitoneal administration of 60 mg/kg of pentobarbital sodium, and the left carotids (for the measurement of blood pressure) and left femoral veins (for the intravenous administration) were cannulated.

Structure (SMILES): CCCCCCCCCOCC(COCCCCCCCCC)OP(=O)([O-])OCC[N+](C)(C)C [Example 9, 1,3-Dinonyloxypropane-2-yl 2-trimethylammonioethyl phosphate]
- growth inhibition rate of tumor (Meth A cells): 76%
- animals survived on day 60 (MM46 cells): 3 animals
- life span prolonging ratio as compared with the control (sarcoma 180 cells [1]; 0.33 mg/mouse three times (hour 1, day 1, day 2), 1×10^5 sarcoma 180 cells i.p., ICR mice): 198
- animal survived on day 60 (sarcoma 180 cells [1]; 5 animals per group, 0.33 mg/mouse three times, sarcoma 180 i.p.): 1 animal

Structure (SMILES): CCCCCCCCOCC(COCCCCCCCC)OP(=O)([O-])OCC[N+](C)(C)C [Example 1, 1,3-Dioctyloxypropane-2-yl 2-trimethylammonioethyl phosphate]
- MIC (Piricularia oryzae): 6.25 µg/mL
- rate of life prolongation against the control group (sarcoma 180 cells [2]): 458
- mice survived 60 days (sarcoma 180 cells [2]; group of 5 mice, 1 mg/mouse i.p., sarcoma 180 i.p.): two
- MIC (Botrytis cinerea): 3.12 µg/mL
- MIC (Elsinoe fawcetti): 3.12 µg/mL
- MIC (Cladosporium herbarum): 6.25 µg/mL
- MIC (Cercospora beticola): 6.25 µg/mL
- MIC (Diaporthe citri): 6.25 µg/mL
- growth inhibition rate of tumor (sarcoma 180 cells [3]): 52%
- MIC (Saccharomyces cerevisiae): 25 µg/mL
- growth inhibition rate of tumor (sarcoma 180 cells [4]): 54%
- MIC (Penicilium citrinum): 12.5 µg/mL
- MIC (Helminthosporium oryzae): 3.12 µg/mL
- MIC (Mucor spinescens): 12.5 µg/mL
- rate of life span prolongation against the control group (T/C) (sarcoma 180 cells [5]): 225

Structure (SMILES): CCCCCCCOCC(COCCCCCCC)OP(=O)([O-])OCC[N+](C)(C)C [Example 10, 1,3-Diheptyloxypropane-2-yl 2-trimethylammonioethyl phosphate]
- rate of life span prolongation against the control group (T/C) (sarcoma 180 cells [6]): 295

Structure (SMILES): CCCCCCCCOCC(COCCCCCCCC)OP(=O)([O-])OCC[n+]1ccsc1 [Example 3, 1,3-Dioctyloxypropane-2-yl 2-thiazolioethyl phosphate]
- growth inhibition rate of tumor (P 388 leukemia cells): 83%

Structure (SMILES): CCCCCCCCCCCCCCCCCCOCC(COP(=O)([O-])OCC[N+](C)(C)C)OC (stereo not drawn) [compound (XI)]
- platelet aggregating action (platelet): has platelet aggregating action
- blood pressure lowering action (in words) [7]: possesses blood-pressure lowering action

Structure (SMILES): CCCCCCCCOCC(COP(=O)([O-])OCC[N+](C)(C)C)OCCCCCCCC (stereo not drawn) [2,3-dioctyloxypropyl 2-trimethylammonioethyl phosphate, reference compound]
- rate of life prolongation against the control group (sarcoma 180 cells [2]): 195
